# Assay results reported in patent US8377667B2, “Microorganisms for the production of 1,4-butanediol, 4-hydroxybutanal, 4-hydroxybutyryl-CoA, putrescine and related compounds, and methods related thereto” (Genomatica, Inc., priority 2009, dated 2013).
# T1: BK (Clostridium acetobutylicum, UniProt Q45829)
# T1 construct: made in house; host or cells: E. coli, crude cell extract (pZA33-0020-0021)
# T1 sequence (Q45829 1-355): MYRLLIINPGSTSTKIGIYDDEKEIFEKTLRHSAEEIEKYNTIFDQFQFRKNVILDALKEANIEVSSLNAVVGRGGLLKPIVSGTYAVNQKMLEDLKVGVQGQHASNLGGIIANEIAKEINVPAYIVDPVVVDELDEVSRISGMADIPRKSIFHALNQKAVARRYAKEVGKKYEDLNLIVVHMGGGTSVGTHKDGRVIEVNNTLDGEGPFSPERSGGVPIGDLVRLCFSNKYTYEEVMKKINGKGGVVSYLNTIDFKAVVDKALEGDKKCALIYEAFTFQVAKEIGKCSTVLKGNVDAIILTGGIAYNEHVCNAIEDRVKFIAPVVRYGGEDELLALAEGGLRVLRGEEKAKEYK
# Tested on: aminotransferase from Leishmania mexicana
# Experiment: not given
# Conditions: activity considered 100% on tyrosine; cited from earlier work
row,Molecule,activity (substrate specificity)
1,CC(C)C[C@H](N)C(=O)O [leucine],25%
2,CSCC[C@H](N)C(=O)O [methionine],25%
3,N[C@@H](Cc1ccccc1)C(=O)O [phenylalanine],90%
4,N[C@@H](Cc1c[nH]c2ccccc12)C(=O)O [tryptophan],85%
5,N[C@@H](Cc1ccc(O)cc1)C(=O)O [tyrosine],100%

# Molecular target: T1, BK
# Experiment: Butyrate kinase (BK) enzyme activity, butyrate to butyryl-phosphate
# Assay type: biochemical, C. acetobutylicum
# Conditions: extracts from cells containing pZA33-0020-0021
# Description: The enzyme activity of PTB is measured in the direction of butyryl-CoA to butyryl-phosphate as described in Cary et al. J. Bacteriol. 170:4613-4618 (1988). It provides inorganic phosphate for the conversion, and follows the increase in free CoA with the reagent 5,5′-dithiobis-(2-nitrobenzoic acid), or DTNB. DTNB rapidly reacts with thiol groups such as free CoA to release the yellow-colored 2-nitro-5-mercaptobenzoic acid (TNB), which absorbs at 412 nm with a molar extinction coefficient of 14,140 M cm^−1. The assay buffer contained 150 mM potassium phosphate at pH 7.4, 0.1 mM DTNB, and 0.2 mM butyryl-CoA, and the reaction was started by addition of 2 to 50 μL cell extract. The enzyme activity of BK is measured in the direction of butyrate to butyryl-phosphate formation at the expense of ATP. The procedure is similar to the assay for acetate kinase previously described Rose et al., J. Biol. Chem. 211:737-756 (1954). However we have found another acetate kinase enzyme assay protocol provided by Sigma to be more useful and sensitive. […] The reaction was started by adding 2 to 50 μL cell extract, and the reaction was monitored based on the decrease in absorbance at 340 nm indicating NADH oxidation. […]
row,Molecule,specific activity of BK
1,"BK: Butyrate kinase from C. acetobutylicum (gene 0021), native ptb/bk operon expressed in pZA33; cell extract (protein, listed as Clostridium acetobutylicum) MYRLLIINPGSTSTKIGIYDDEKEIFEKTLRHSAEEIEKYNTIFDQFQFRKNVILDALKEANIEVSSLNAVVGRGGLLKPIVSGTYAVNQKMLEDLKVGVQGQHASNLGGIIANEIAKEINVPAYIVDPVVVDELDEVSRISGMADIPRKSIFHALNQKAVARRYAKEVGKKYEDLNLIVVHMGGGTSVGTHKDGRVIEVNNTLDGEGPFSPERSGGVPIGDLVRLCFSNKYTYEEVMKKINGKGGVVSYLNTIDFKAVVDKALEGDKKCALIYEAFTFQVAKEIGKCSTVLKGNVDAIILTGGIAYNEHVCNAIEDRVKFIAPVVRYGGEDELLALAEGGLRVLRGEEKAKEYK",approximately 65 U/mg
